Consider 28 compounds from patent US8211911B2, “Compounds as kinase inhibitors” (priority 2008, dated 2012).

Read-outs that look alike come from different tables or passages of the source.

In assay [1] the test system is NSCLC A549 cell line. The assay can be described thus: MTT assay against human tumor NSCLC A549 cell line. The assay is classed as cell-based. On the technique in general: Formazan colour is commonly taken as a measure of viable cells.
Assay [2] relates to colon LOVO cell line. Briefly: MTT assay against colon LOVO cell line. The assay is classed as cell-based, human.

`CNC(=O)c1cccc2cc(Oc3ccnc4cc(OCCN5CC(=O)C6(CC6)C5)c(OC)cc34)ccc12` [Example 22, 6-(6-Methoxy-7-(2-(7-oxo-5-azaspiro[2.4]heptan-5-yl)ethoxy)quinolin-4-yloxy)-N-methyl-1-naphthamide]: the 50% inhibitory concentration (IC50) (as a rule, the concentration needed to halve the response being measured) came out at 700 nM in assay [1] (Homo sapiens) and 1100 nM in assay [2] (Homo sapiens).

As for `CNC(=O)c1c(C)oc2cc(Oc3ccnc4cc(OCCN5CC(=O)C6(CC6)C5)c(OC)cc34)ccc12` [Example 12, 6-(6-Methoxy-7-(2-(7-oxo-5-azaspiro[2.4]heptan-5-yl)ethoxy)quinolin-4-yloxy)-N,2-dimethylbenzofuran-3-carboxamide], the IC50 was 300 nM in assay [1] (Homo sapiens) and 900 nM in assay [2] (Homo sapiens).

As for `CNC(=O)c1c(C)oc2cc(Oc3ccnc4cc(OCCCN5CC(=O)C6(CC6)C5)c(OC)cc34)ccc12` [Example 17, 6-(6-Methoxy-7-(3-(7-oxo-5-azaspiro[2.4]heptan-5-yl)propoxy)quinolin-4-yloxy)-N,2-benzofuran-3-carboxamide], the IC50 in assay [1] was found to be 300 nM; in assay [2], 900 nM.

In the case of `CNC(=O)c1c(C)oc2cc(Oc3ccnc4cc(OCCN5CC6(CC6)C6(C5)OCCO6)c(OC)cc34)ccc12` [Example 11, 6-(6-Methoxy-7-[2-(5,8-Dioxa-10-azadispiro[2.0.4.3]undecane)ethoxy]quinolin-4-yloxy)-N,2-dimethylbenzofuran-3-carboxamide], the IC50 is 200 nM in assay [1] and 700 nM in assay [2].

In the case of `COc1cc2c(Oc3ccc4[nH]c(C)cc4c3F)ccnc2cc1OCCCN1CC(OC)C2(CC2)C1` (centres unmarked) [Example 9, 4-(4-Fluoro-2-methyl-1H-indol-5-yloxy)-6-methoxy-7-(3-(7-methoxy-5-azaspiro[2.4]heptan-5-yl)propoxy)quinoline], the IC50 in assay [1] (Homo sapiens) stood at 100 nM; in assay [2] (Homo sapiens), 400 nM.

Regarding `COc1cc2c(Oc3ccc4[nH]c(C)cc4c3F)ccnc2cc1OCCCN1CC(=O)C2(CC2)C1` [Example 7, 5-(3-(4-(4-Fluoro-2-methyl-1H-indol-5-yloxy)-6-methoxyquinolin-7-yloxy)propyl)-5-azaspiro[2.4]-heptan-7-one], the IC50 in assay [1] (Homo sapiens) is 90 nM; in assay [2] (Homo sapiens), 200 nM.

Take `CNC(=O)c1c(C)oc2cc(Oc3ccnc4cc(OCCCN5CC6(CC6)C6(C5)OCCO6)c(OC)cc34)ccc12` [Example 16, 6-(6-Methoxy-7-[3-(5,8-Dioxa-10-azadispiro[2.0.4.3]undecane)propoxy]quinolin-4-yloxy)-N,2-dimethylbenzofuran-3-carboxamide]: the 50% inhibitory concentration (IC50) in assay [1] stood at 200 nM; in assay [2] it was 700 nM.

Take `COc1cc2c(Oc3ccc4[nH]c(C)cc4c3F)ccnc2cc1OCCCN1CC(O)C2(CC2)C1` (centres unmarked) [Example 8, 5-(3-(4-(4-Fluoro-2-methyl-1H-indol-5-yloxy)-6-methoxyquinolin-7-yloxy)propyl)-5-azaspiro[2.4]-heptan-7-ol]: the half-inhibitory concentration (IC50) in assay [1] (Homo sapiens) came out at 100 nM; in assay [2] (Homo sapiens), 300 nM.

Regarding `CNC(=O)c1cccc2cc(Oc3ccnc4cc(OCCCN5CC(O)C6(CC6)C5)c(OC)cc34)ccc12` (centres unmarked) [Example 28, 6-(7-(3-(7-Hydroxy-5-azaspiro[2.4]heptan-5-yl)propoxy)-6-methoxyquinolin-4-yloxy)-N-methyl-1-naphthamide], the results for the concentration for half-maximal inhibition (IC50) in assay [1] (Homo sapiens) and in assay [2] (Homo sapiens) were 1000 nM and 1500 nM, respectively.

Take `CNC(=O)c1cccc2cc(Oc3ccnc4cc(OCCN5CC(OC)C6(CC6)C5)c(OC)cc34)ccc12` (centres unmarked) [Example 24, 6-(6-Methoxy-7-(2-(7-methoxy-5-azaspiro[2.4]heptan-5-yl)ethoxy)quinolin-4-yloxy)-N-methyl-1-naphthamide]: the half-inhibitory concentration (IC50) in assay [1] (Homo sapiens) was 1000 nM; in assay [2] (Homo sapiens), 1500 nM.

In the case of `COc1cc2c(Oc3ccc4[nH]c(C)cc4c3F)ccnc2cc1OCCN1CC(OC)C2(CC2)C1` (centres unmarked) [Example 4, 4-(4-Fluoro-2-methyl-1H-indol-5-yloxy)-6-methoxy-7-(2-(7-methoxy-5-azaspiro[2.4]heptan-5-yl)ethoxy)quinoline], the values for the 50% inhibitory concentration (IC50) in assay [1] (Homo sapiens) and in assay [2] (Homo sapiens) were 80 nM and 400 nM, respectively.

Turning to `COc1cc2c(Oc3ccc4[nH]c(C)cc4c3F)ccnc2cc1OCCN1CC2(CC2)C2(C1)OCCO2` [Example 1, 4-(4-Fluoro-2-methyl-1H-indol-5-yloxy)-6-methoxy-7-[2-(5,8-Dioxa-10-azadispiro[2.0.4.3]-undecane)ethoxy]quinoline], the half-inhibitory concentration (IC50) stood at 90 nM in assay [1] and 200 nM in assay [2].

As for `C=C1CN(CCCOc2cc3nccc(Oc4ccc5c(C(=O)NC)c(C)oc5c4)c3cc2OC)CC12CC2` [Example 20, 6-(6-Methoxy-7-(3-(7-methylene-5-azaspiro[2.4]heptan-5-yl)propoxy)quinolin-4-yloxy)-N,2-dimethylbenzofuran-3-carboxamide], the IC50 in assay [1] (Homo sapiens) worked out at 300 nM; in assay [2] (Homo sapiens), 900 nM.

As for `C=C1CN(CCOc2cc3nccc(Oc4ccc5c(C(=O)NC)cccc5c4)c3cc2OC)CC12CC2` [Example 25, 6-(6-Methoxy-7-(2-(7-methylene-5-azaspiro[2.4]heptan-5-yl)ethoxy)quinolin-4-yloxy)-N-methyl-1-naphthamide], the IC50 came to 300 nM in assay [1] (Homo sapiens) and 900 nM in assay [2] (Homo sapiens).

For `CNC(=O)c1cccc2cc(Oc3ccnc4cc(OCCCN5CC(=O)C6(CC6)C5)c(OC)cc34)ccc12` [Example 27, 6-(6-Methoxy-7-(3-(7-oxo-5-azaspiro[2.4]heptan-5-yl)propoxy)quinolin-4-yloxy)-N-methyl-1-naphthamide], the IC50 in assay [1] (Homo sapiens) was found to be 400 nM; in assay [2] (Homo sapiens), 900 nM.

`C=C1CN(CCOc2cc3nccc(Oc4ccc5[nH]c(C)cc5c4F)c3cc2OC)CC12CC2` [Example 5, 4-(4-Fluoro-2-methyl-1H-indol-5-yloxy)-6-methoxy-7-(2-(7-methylene-5-azaspiro[2.4]heptan-5-yl)ethoxy)quinoline]: the values for the IC50 in assay [1] (Homo sapiens) and in assay [2] (Homo sapiens) were 100 nM and 400 nM, respectively.

For `CNC(=O)c1cccc2cc(Oc3ccnc4cc(OCCCN5CC(OC)C6(CC6)C5)c(OC)cc34)ccc12` (centres unmarked) [Example 29, 6-(6-Methoxy-7-(3-(7-methoxy-5-azaspiro[2.4]heptan-5-yl)propoxy)quinolin-4-yloxy)-N-methyl-1-naphthamide], the IC50 in assay [1] (Homo sapiens) was 300 nM; in assay [2] (Homo sapiens) it was 900 nM.

For `CNC(=O)c1c(C)oc2cc(Oc3ccnc4cc(OCCCN5CC(O)C6(CC6)C5)c(OC)cc34)ccc12` (centres unmarked) [Example 18, 6-(7-(3-(7-Hydroxy-5-azaspiro[2.4]heptan-5-yl)propoxy)-6-methoxyquinolin-4-yloxy)-N,2-dimethyl-benzofuran-3-carboxamide], the half-maximal inhibitory concentration (IC50) came to 500 nM in assay [1] (Homo sapiens) and 800 nM in assay [2] (Homo sapiens).

Consider `CNC(=O)c1c(C)oc2cc(Oc3ccnc4cc(OCCCN5CC(OC)C6(CC6)C5)c(OC)cc34)ccc12` (centres unmarked) [Example 19, 6-(6-Methoxy-7-(3-(7-methoxy-5-azaspiro[2.4]heptan-5-yl)propoxy)quinolin-4-yloxy)-N,2-dimethyl-benzofuran-3-carboxamide], for which the IC50 in assay [1] (Homo sapiens) turned out to be 200 nM; in assay [2] (Homo sapiens) it was 700 nM.

For the compound `COc1cc2c(Oc3ccc4[nH]c(C)cc4c3F)ccnc2cc1OCCCN1CC2(CC2)C2(C1)OCCO2` [Example 6, 4-(4-fluoro-2-methyl-1H-indol-5-yloxy)-6-methoxy-7-[3-(5,8-Dioxa-10-azadispiro[2.0.4.3]-undecane)propoxy]quinoline], the IC50 was determined as 80 nM in assay [1] and 400 nM in assay [2].

As for `C=C1CN(CCOc2cc3nccc(Oc4ccc5c(C(=O)NC)c(C)oc5c4)c3cc2OC)CC12CC2` [Example 15, 6-(6-Methoxy-7-(2-(7-methylene-5-azaspiro[2.4]heptan-5-yl)ethoxy)quinolin-4-yloxy)-N,2-dimethyl-benzofuran-3-carboxamide], the concentration for half-maximal inhibition (IC50) stood at 300 nM in assay [1] (Homo sapiens) and 900 nM in assay [2] (Homo sapiens).

Regarding `CNC(=O)c1c(C)oc2cc(Oc3ccnc4cc(OCCN5CC(O)C6(CC6)C5)c(OC)cc34)ccc12` (centres unmarked) [Example 13, 6-(7-(2-(7-Hydroxy-5-azaspiro[2.4]heptan-5-yl)ethoxy)-6-methoxyquinolin-4-yloxy)-N,2-dimethylbenzofuran-3-carboxamide], the IC50 came out at 200 nM in assay [1] (Homo sapiens) and 900 nM in assay [2] (Homo sapiens).

Take `CNC(=O)c1c(C)oc2cc(Oc3ccnc4cc(OCCN5CC(OC)C6(CC6)C5)c(OC)cc34)ccc12` (centres unmarked) [Example 14, 6-(6-Methoxy-7-(2-(7-methoxy-5-azaspiro[2.4]heptan-5-yl)ethoxy)quinolin-4-yloxy)-N,2-dimethylbenzofuran-3-carboxamide]: the figures for the IC50 in assay [1] (Homo sapiens) and in assay [2] (Homo sapiens) were 200 nM and 700 nM, respectively.

Consider `CNC(=O)c1cccc2cc(Oc3ccnc4cc(OCCN5CC6(CC6)C6(C5)OCCO6)c(OC)cc34)ccc12` [Example 21, 6-(6-Methoxy-7-[2-(5,8-Dioxa-10-azadispiro[2.0.4.3]undecane)ethoxy]quinolin-4-yloxy)-N-methyl-1-naphthamide], for which the half-inhibitory concentration (IC50) in assay [1] amounted to 800 nM; in assay [2], 1100 nM.

With `COc1cc2c(Oc3ccc4[nH]c(C)cc4c3F)ccnc2cc1OCCN1CC(=O)C2(CC2)C1` [Example 2, 5-(2-(4-(4-Fluoro-2-methyl-1H-indol-5-yloxy)-6-methoxyquinolin-7-yloxy)ethyl)-5-azaspiro[2.4]-heptan-7-one], the IC50 in assay [1] (Homo sapiens) stood at 100 nM; in assay [2] (Homo sapiens), 300 nM.

For the compound `CNC(=O)c1cccc2cc(Oc3ccnc4cc(OCCN5CC(O)C6(CC6)C5)c(OC)cc34)ccc12` (centres unmarked) [Example 23, 6-(7-(2-(7-Hydroxy-5-azaspiro[2.4]heptan-5-yl)ethoxy)-6-methoxyquinolin-4-yloxy)-N-methyl-1-naphthamide], the IC50 in assay [1] (Homo sapiens) was 800 nM; in assay [2] (Homo sapiens), 1200 nM.

Turning to `C=C1CN(CCCOc2cc3nccc(Oc4ccc5[nH]c(C)cc5c4F)c3cc2OC)CC12CC2` [Example 10, 4-(4-Fluoro-2-methyl-1H-indol-5-yloxy)-6-methoxy-7-(3-(7-methylene-5-azaspiro[2.4]heptan-5-yl)propoxy)quinoline], the IC50 worked out at 100 nM in assay [1] (Homo sapiens) and 400 nM in assay [2] (Homo sapiens).

For `CNC(=O)c1cccc2cc(Oc3ccnc4cc(OCCCN5CC6(CC6)C6(C5)OCCO6)c(OC)cc34)ccc12` [Example 26, 6-(6-Methoxy-7-[3-(5,8-Dioxa-10-azadispiro[2.0.4.3]undecane)propoxy]quinolin-4-yloxy)-N-methyl-1-naphthamide], the IC50 stood at 800 nM in assay [1] and 1100 nM in assay [2].
